For the experiment, the system named is Septoria tritici. Briefly: Growth assay with Septoria tritici as indicator fungus (photometric). Format: cell-based. Particulars: active ingredient concentration in the spray mixture 1 ppm. The procedure: A growth assay was carried out with Septoria tritici as indicator fungus. The fungal growth was measured photometrically by the increase in absorption or light scattering as a function of mycelium density. The data obtained were converted into percent growth inhibition, the absorption of the untreated controls being defined as 0% inhibition and that of a killed spore suspension as reference as 100% inhibition.
The expected efficacies of combinations of active ingredients were determined using Colby's formula (Colby, S. R. (Calculating synergistic and antagonistic responses of herbicide combinations”, Weeds, 15, pp. 20-22, 1967)) and compared with the observed efficacies.
E=x+y−x·y/100 • E expected efficacy, expressed in % of the untreated control, when using the mixture of the active ingredients A and B at the concentrations a and b • x efficacy, expressed in % of the untreated control, when using the active ingredient A at the concentration a • y efficacy, expressed in % of the untreated control, when using the active ingredient B at the concentration b

Here are results for one compound from US20080004177A1, “Novel Copper-Containing Formulations” (priority 2003, published 2008).

Regarding `COC(=O)N(OC)c1ccccc1COc1ccn(-c2ccc(Cl)cc2)n1` [II, Pyraclostrobin], the Growth inhibition amounted to 57%.
